Measurements as given in a melting point compilation (Tetko et al.; mined from patent text by program, amines drawn as free bases though some values may be those of a salt).

Compound | melting point [°C]
Cc1ccc2c(c1)C=C(C(=O)O)C(C(F)(F)F)S2 (stereo unspecified) | 181 to 184
CC/C(=C\c1cccc(OCc2nc(-c3ccc(C(F)(F)F)cc3)oc2C)c1)Cn1oc(=O)[nH]c1=O | 124 to 125
COC(=O)C1Oc2ccccc2Cc2cccc(O)c2O1 (stereo unspecified) | 163 to 165
O=c1[nH]c2cc(C(F)(F)F)ccc2n1CCN1CCN(C(c2ccccc2)c2ccccc2)CC1 | 164
COc1cc(O)ccc1C1=NC2=CCC(=O)NC2=N1 | > 270
CC(C)(C)[Si](C)(C)Oc1ccc2c(ccc3c4ccc(O[Si](C)(C)C(C)(C)C)cc4oc(=O)c23)c1 | 154 to 156
COC(=O)NC1=NCC(c2cc(Cl)ccc2Cl)CN1 (stereo unspecified) | 231 to 234
O=C(Cc1ccc(OCc2cccc(C(=O)O)c2)cc1)NC1(C(=O)O)Cc2ccc(-c3ccc(Cl)cc3)cc2C1 (stereo unspecified) | 220 to 222
CCOC(CN1C(=O)C2=C(c3ccsc3)N(CC(OCC)OCC)C(=O)C2=C1c1ccsc1)OCC | 166 to 167
CCC1(CC)OC(c2ccc(S(C)(=O)=O)cc2)=C(c2ccccc2)C1=O | 139 to 140
O=C(O)[C@@H](Cl)[C@H](O)c1ccccc1 | 98 to 100
COc1ccc(C(=O)Oc2cc(OCCO/N=C/c3ccc(C(C)(C)C)cc3)ccc2C(=O)O)cc1 | 116 to 118
CN(C)c1ccc(C(=O)c2ccccc2)cc1NC(=O)c1ccn2c1CSC2c1cccnc1 (stereo unspecified) | 186
COc1ccc(-c2csc(CC(=O)O)n2)cc1OC1CC2CCC1C2 (stereo unspecified) | 190 to 191
C=CCOC(=O)c1c(C)c(OC)cc(O[Si](C)(C)C(C)(C)C(C)C)c1C=O | 81 to 82
COC(=O)c1cc(Cl)c(OCCn2ccnc2)s1 | 97 to 99
COc1cc2c(cc1O)CCN(Cc1cccc(OC(C)=O)c1)C2 | 120 to 122
COc1cc2c(c3ccccc13)Nc1ccccc1S2 | 168 to 170
CC(C)S(=O)(=O)c1nc(OS(C)(=O)=O)cs1 | 56.5 to 58.5
COc1nc2ccccc2cc1NC(=O)N1CCN(c2cccc(O)c2)CC1 | 190 to 191

Compound | melting point [°C]
CCOC(=O)Cc1nc(-c2ccc(Cl)cc2)oc1Sc1ccccc1 | 109 to 110
CC(=O)OCc1nc2c([N+](=O)[O-])cc(Br)cc2n1C | 143 to 145
COC(=O)C=CC=CCS(=O)c1ccccc1 (stereo unspecified) | 82 to 84
c1ccc2c(CCN=c3sc4ccccc4s3)c[nH]c2c1 | 149 to 150
CCCCCC1=NNC(=O)CC1 | 40
O=C(c1ccc2c(c1)C(=O)N1CCC[C@H]1CO2)N1CCOCC1 | 158 to 161
CCON=CNC(=O)c1ccc(C2=NOC(c3cc(Cl)cc(Cl)c3)(C(F)(F)F)C2)cc1C (stereo unspecified) | 143 to 146
C1=C(c2c[nH]c3ccccc23)CCN(CC2CCc3ccccc3O2)C1 (stereo unspecified) | 171 to 173
Cc1ccc(S(=O)(=O)N2CCCC(S(=O)(=O)c3ccc(F)cc3)C2)cc1 (stereo unspecified) | 186
FC(F)(F)CSc1nc2ccccc2[nH]1 | 148 to 150
Cc1c2c3c(nc(N)c2nn1C)CCCC3 | 258 to 259
Cc1cc(-c2ccc3c(=O)c(C(=O)O)cn(C4CC4)c3c2C)cnc1CO | 225 to 226
O=C(Cc1ccc(Cl)cc1Cl)N1CCN(c2cnccn2)CC1 | 124 to 125
CC(=O)OCc1cncc(COc2cc3c(=O)c(Cc4cccnc4)cn4c5ccc(Br)cc5c(c2)c34)c1 | 83.5 to 84.5
CNC(=O)N1CC(Oc2ccccc2C(F)(F)F)C1 | 134 to 136
COc1nc(C)cnc1NS(=O)(=O)c1cccnc1-c1ccc(COCCO)cc1 | 106 to 108
CCNc1c(C(=O)OCC)c(C)nc2nccnc12 | 72 to 74
CCn1c(C)c(C(=O)c2ccc(N)cc2C(=O)O)c2ccccc21 | 187 to 189
O=C(Nc1cccc2c1C(=O)c1c-2n[nH]c1-c1ccc(C(=O)[C@]23CN[C@H](CN2)C3)s1)NN1CCOCC1 | > 300

Continued, values first:

melting point [°C] | Compound
188 to 190 | COC(=O)CCc1ccc(N2C(=O)CN(c3ccc(C#N)cc3)C2=O)cc1
219 to 220 | COc1cc(C(C)C)ccc1C1(O)C(=O)c2cccc(N)c2C1=O (stereo unspecified)
162 | O=S1(=O)c2cccc3cccc(c23)N1CCN1CCN(c2nsc3ccccc23)CC1
112 to 115 | NC(=O)c1[nH]nc([C@@H]2O[C@H](CO)[C@@H](O)[C@H]2O)c1O
139 to 143 | COc1ccc(N2CCN(c3c(C)c(C)c4c(c3C)CC(C)(CN3CCC(O)CC3)O4)CC2)cc1 (stereo unspecified)
194 to 195 | O=c1[nH]c(=O)n(Cc2ccccc2)cc1C(F)(F)F
> 300 | CSc1cc2c(cn1)c(=O)n1nc(C)cc1n2C
112 | CN(Cc1ccc(C=CC(=O)O)cc1)S(=O)(=O)c1ccccc1
206 | COCC(=O)Nc1ccc(C2=NNC(=O)C3CC23)cc1 (stereo unspecified)
157 to 160 | CCCc1nc2c(N)nc3cc(OCCCO)ccc3c2s1
134 to 136 | CCC(O)c1oc(C)cc(=O)c1O (stereo unspecified)
176 to 178 | C=CCOc1cc(CC(C#N)=CNc2ccccc2)cc(OCC=C)c1NC(C)=O
229 to 237 | COc1cc(OCc2nccs2)ccc1/C=C/c1cc(/C=C/c2ccc3cc[nH]c3c2)n[nH]1
177 to 178 | CC(C(N)=O)c1cccc2c1Oc1ccccc1CC2=O (stereo unspecified)
101 to 103 | C#CC[C@H](c1nc2cc(Cl)ccc2c(=O)n1Nc1ccccc1)N(CCCN)C(=O)c1cccc(Cl)c1F
131 to 133 | COc1ccc(/C=C/C(=O)Nc2ccccc2)cc1OC
> 300 | CCOC(=O)c1ccc(NC(=O)Nc2nnc(-c3cc(Cl)cc(Cl)c3O)s2)cc1
88 to 93 | CC1(CN2CCN(Cc3ccc(C(F)(F)F)cc3)C(=O)C2)Cn2cc([N+](=O)[O-])nc2O1 (stereo unspecified)
133 to 136 | Cn1nc(-c2c(Cl)cccc2Cl)nc1-c1cccnc1Cl

melting point [°C] | Compound
212 to 214 | NC(=O)N1C(=O)C(C(=O)c2cc(Cl)cs2)c2cc(Cl)ccc21 (stereo unspecified)
237 | Cc1cc(C(=O)Nc2cc(Oc3ccc4nc(NC(=O)C5CC5)cn4n3)ccc2F)n(C)n1
187 | CC(=O)OC1CCC2(C)C3CCC4(C)C(C(C)=O)CCC4C3CC(Cl)C2(Cl)C1 (stereo unspecified)
161 to 163 | COCc1nsc2ccc(-n3c(=O)cc(C(F)(F)F)n(C)c3=O)cc12
153 to 155 | CCCCc1nn(C(C)C(=O)NC)c(=O)n1Cc1ccc(-c2ccccc2-c2nnn[nH]2)cc1 (stereo unspecified)
46 to 47 | CCOC(=O)c1cccc(-c2ccc3c(n2)C(O)CC3)c1 (stereo unspecified)
256 to 260 | CN(C)C1CN(c2c(F)cc3c(=O)c(C(=O)O)cn(C4CC4)c3c2F)C1
206 | CN1CCOc2ccc(S(=O)(=O)n3c(Cc4ccc(C(=O)O)cc4)cc4cc(C(F)(F)F)ccc43)cc21
61 to 65 | CC(O)=C(C(=O)OCc1ccccc1)N1C(=O)[C@@H](N2C(=O)c3ccccc3C2=O)[C@H]1COS(C)(=O)=O
93 to 94 | COC1=C(C)C(=O)c2ccccc2C1=O
158 to 162 | CCC(C)Cc1c(-c2ccc([N+](=O)[O-])cc2Cl)c(C)nc2ncnn12 (stereo unspecified)
122 to 124 | COC(=O)c1cc(Br)c(OC)cc1O
151 to 152 | CC(C)(c1ccc(Oc2ccc([N+](=O)[O-])cc2F)cc1)c1cccc(C(C)(C)c2ccc(Oc3ccc([N+](=O)[O-])cc3F)cc2)c1
233 | CC(=O)OC1C(COC(=O)c2ccccc2)OC(n2cc(Cl)c(N)nc2=O)C1F (stereo unspecified)
312 to 314 | COc1ccc(-c2c(O)c3ccccc3[nH]c2=O)cc1OC
127 to 129 | Cc1ccc(NC(=O)N2C(=S)C3(CCCCC3)NC23CCCCC3)cc1
152 | Cc1noc(C)c1-c1ccc(C[C@H](NC(=O)c2c(Cl)cccc2Cl)C(=O)O)cc1
201 to 202 | O=C(Nc1ccc(Cl)cn1)N[C@@H]1C[C@@H]1c1cccc([N+](=O)[O-])c1 (racemic)
241 | O=C(Nc1nc(C(F)(F)F)co1)C1c2ccccc2Oc2ccc(F)cc21 (racemic)

melting point [°C] | Compound
148 to 150 | Cc1noc(NS(=O)(=O)c2cc(Cl)ccc2Cl)c1Br
301 | O=c1[nH]c2ccccc2c(=O)n1CCN1CCC(c2c[nH]c3cc(F)ccc23)CC1
> 250 | CC(C)C1=C(C#N)C(c2cccc(Cl)c2Cl)c2c[nH]nc2N1 (stereo unspecified)
243 to 246 | COc1cc2c(cc1C(F)(F)F)N(C(=O)Nc1ccc3c(ccn3Cc3cccnc3)c1)CC2
251 to 252 | O=C(O)[C@H]1C[C@H](NC(=O)N2CCc3ccccc32)c2c(Cl)cc(Cl)cc2N1 (relative stereo)
118 to 119 | CC(C#Cc1cccc(Oc2nccs2)c1)N(O)C(N)=O (stereo unspecified)
171 to 172 | Cc1cc([N+](=O)[O-])c(NC(C)C(=O)N(C)O)c([N+](=O)[O-])c1 (stereo unspecified)
169 to 171 | CCOCc1nc2c(N)nc3cc(OCCCCCCNC(C)=O)ccc3c2n1CC(C)(C)NS(C)(=O)=O
77 to 79 | CCC(COc1cccc(COc2cccc3cccnc23)c1)OC(C)=O (stereo unspecified)
145 to 147 | NC(=O)N1CCC(c2nn(-c3ccc(F)cc3)c3ccccc23)CC1
> 300 | Nc1ncnc2c1nc(OC(=O)OCc1ccccc1)n2Cc1ccccc1
169 to 170 | CONC(=N)c1nn(-c2c(Cl)cc(C(F)(F)F)cc2Cl)c(N)c1S(C)=O (stereo unspecified)
95.5 to 98 | O=C(CS(=O)(=O)Cc1cccs1)C12CC3CC(CC(C3)C1)C2
86 | COC(=O)[C@@H]1CC[C@@H]2CN1C(=O)N2OCc1ccccc1
151 to 152 | CNC(=O)c1cccc(NC(=O)CCc2ccc(OC)cc2)c1
66 | CCOC(=O)C1=COc2ccc(OC(C)=O)cc2O1
78 | CCOC(=O)c1ccc(NCc2cc(Br)ccc2OCc2ccccc2)c(OC)c1
170 | COC(=O)c1cn2c(C(F)(F)F)nnc2c2ccccc12
162 to 164 | COc1ccc(C2CN(S(=O)(=O)c3ccc(C)cc3)Cc3ccccc32)c(CO)c1OC (stereo unspecified)
